# Read-outs that look alike come from different tables or passages of the source.
# Tests used:
# [1] = biological target: T1, glucocerebrosidase (Gcase) (Homo sapiens, UniProt P04062); assay: Glucocerebrosidase (Gcase) activation assay, 4-methylumbelliferyl-beta-D-glucopyranoside substrate, with saposin C; type: biochemical
# T1 sequence (P04062 40-536): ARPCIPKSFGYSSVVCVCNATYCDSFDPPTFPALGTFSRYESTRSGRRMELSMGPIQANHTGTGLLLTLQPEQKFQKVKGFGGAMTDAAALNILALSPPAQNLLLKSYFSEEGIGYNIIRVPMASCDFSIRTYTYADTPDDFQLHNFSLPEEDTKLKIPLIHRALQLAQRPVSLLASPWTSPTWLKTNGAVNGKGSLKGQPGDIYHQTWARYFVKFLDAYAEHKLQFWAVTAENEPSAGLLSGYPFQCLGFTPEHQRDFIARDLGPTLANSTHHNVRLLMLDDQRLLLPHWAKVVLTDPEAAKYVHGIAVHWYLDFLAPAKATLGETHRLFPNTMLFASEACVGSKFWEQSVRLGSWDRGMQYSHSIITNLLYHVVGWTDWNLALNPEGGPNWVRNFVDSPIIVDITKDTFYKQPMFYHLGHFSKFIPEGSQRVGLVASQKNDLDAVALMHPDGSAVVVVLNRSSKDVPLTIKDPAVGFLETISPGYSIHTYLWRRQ
# Procedure, shortened: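 Micellar buffer (176 mM K2HPO4/50 mM citric acid, pH 4.7; 0.32 mM triton, 0.37 mol % PS) holding 10 nM GCase and 100 nM saposin C, pre-incubated with compound 30 min at room temperature. Substrate final 2 mM before mixing; 15 min reaction, glycine pH 12.5 stop, fluorescence 365/440 nm. Screened at 1.0 and 0.1 μM; 8-point, 3-fold dose response.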
# [2] = Compound solubility in water; type: physicochemical
# [3] = 0.1 μM test compound, read-out: Percent Gcase Activation 0.1 μM Test Compound
# [4] = 1 μM test compound, read-out: Percent Gcase Activation 1 μM Test Compound
# [5] = test compound at 0.1 μM, read-out: Percent Gcase Activation, 0.1 μM Test Compound
# [6] = test compound at 1.0 μM, read-out: Percent Gcase Activation, 1 μM Test Compound
Compound,"activation at 0.1 µM [1, 3] [%]","activation at 1 µM [1, 4] [%]",solubility [2] [µg/mL],"activation at 0.1 µM [1, 5] [%]","activation at 1 µM [1, 6] [%]",solubility ([2]; in water) [µg/mL]
Cc1cc(C#N)c(-c2cc(C)n3cnc(C(=O)NC(C4CC4)C(F)(F)F)c3n2)o1 (stereo not drawn) [IV-92],,,,> 20,> 60,0.3
Cc1cc(-c2ccco2)nc2c(C(=O)NC(C3CC3)C(F)(F)F)ncn12 (stereo not drawn) [IV-83],,,,> 20,> 60,1.2
Cc1cc(-c2cccc(F)c2C#N)nc2c(C(=O)NC(C3CC3)C(F)(F)F)ncn12 (stereo not drawn) [IV-38],,,,> 20,> 60,0.4
Cc1cc(C)n2cnc(C(=O)N[C@H]3[C@@H]4CC[C@H]3C[C@@H](OC(C)(C)C)C4)c2n1 [IV-10],,,,> 20,> 60,1
Cc1cc(-c2ccsc2C#N)nc2c(C(=O)NC(C3CC3)C(F)(F)F)ncn12 (stereo not drawn) [IV-88],,,,> 20,> 60,0.3
COc1cccc(-c2cc(C)n3cnc(C(=O)N[C@@H](C)C(F)(F)F)c3n2)c1 [IV-22],,,,> 20,> 60,1.7
Cc1cc(N2CCCN(C(C)C)C2=O)nc2c(C(=O)NC(C3CC3)C(F)(F)F)ncn12 (stereo not drawn) [IV-89],,,,< 10,< 30,25.6
Cc1cc(-c2cccc3nccn23)nc2c(C(=O)NC(C3CC3)C(F)(F)F)ncn12 (stereo not drawn) [IV-25],,,,< 10,< 30,3.3
COc1cccc(-c2cc(C)n3cnc(C(=O)N[C@H](C)C(F)(F)F)c3n2)c1 [IV-21],,,,10 to 20,> 60,2.7
COc1ccc(F)c(-c2cc(C)n3cnc(C(=O)NC(C)C(F)(F)F)c3n2)c1 (stereo not drawn) [IV-104],,,,> 20,> 60,0.7
C#CC(C)(C)NC(=O)c1ncn2c(C)cc(-c3ccc4c(c3)OCO4)nc12 [IV-26],,,,10 to 20,> 60,0.5
Cc1cc(-c2sccc2C#N)nc2c(C(=O)NC(C3CC3)C(F)(F)F)ncn12 (stereo not drawn) [IV-37],,,,> 20,> 60,2.4
Cc1cc(-c2cc(C#N)co2)nc2c(C(=O)NC(C3CC3)C(F)(F)F)ncn12 (stereo not drawn) [IV-81],,,,10 to 20,> 60,1
Cc1cc(-c2ccc3ocnc3c2)nc2c(C(=O)NC(C3CC3)C(F)(F)F)ncn12 (stereo not drawn) [IV-72],,,,> 20,> 60,1.1
COc1ccc(F)cc1-c1cc(C)n2cnc(C(=O)NC(C3CC3)C(F)(F)F)c2n1 (stereo not drawn) [IV-71],,,,> 20,> 60,1.5
Cc1cc(-c2cccc(OC3CC3)n2)nc2c(C(=O)NC(C3CC3)C(F)(F)F)ncn12 (stereo not drawn) [IV-15],,,,10 to 20,> 60,2.1
COc1c(C#N)cccc1-c1cc(C)n2cnc(C(=O)N[C@@H](C)C3CC3)c2n1 [IV-65],,,,< 10,< 30,15.6
COc1cc(F)cc(-c2cc(C)n3cnc(C(=O)N[C@H](C)C(F)(F)F)c3n2)c1 [IV-58],,,,> 20,> 60,2.3
Cc1cc(-c2ccccc2CC#N)nc2c(C(=O)NC(C3CC3)C(F)(F)F)ncn12 (stereo not drawn) [IV-40],,,,< 10,30 to 60,15.4
Cc1cc(-c2cc(F)ccc2C#N)nc2c(C(=O)NC(C3CC3)C(F)(F)F)ncn12 (stereo not drawn) [IV-108],,,,> 20,> 60,0.7

# Now from value to compound:
"activation at 0.1 µM [1, 3] [%]","activation at 1 µM [1, 4] [%]",solubility [2] [µg/mL],"activation at 0.1 µM [1, 5] [%]","activation at 1 µM [1, 6] [%]",solubility ([2]; in water) [µg/mL],Compound
10 to 20,30 to 60,0.2,,,,C#Cc1ccc(NC(=O)c2ncn3c(C4CCCC4)cc(C)nc23)cc1 [III-1]
> 20,> 60,2.4,,,,Cc1cc(-c2cccc(Cl)c2)nc2c(C(=O)NC(C)(C)C)ncn12 [III-134]
> 20,> 60,3.7,,,,Cc1cc(-c2cccc(Cl)c2)nc2c(C(=O)NC(C)(C)C(F)(F)F)ncn12 [III-185]
< 10,30 to 60,14.3,,,,Cc1cc(OC2CC2)nc2c(C(=O)NC(C3CC3)C3CC3)ncn12 [III-179]
< 10,30 to 60,7.2,,,,COc1ccnc(-c2cc(C)n3cnc(C(=O)NC(C)C4CC4)c3n2)c1 (stereo not drawn) [III-100]
> 20,> 60,7.1,,,,Cc1cc(-c2cccnc2)nc2c(C(=O)NC(c3ccc(F)cc3)C(F)(F)F)ncn12 (stereo not drawn) [III-48]
< 10,< 30,24.4,,,,Cc1cc(C)n2cnc(C(=O)N[C@@H](C)C3CC3)c2n1 [III-6]
> 20,> 60,0.5,,,,Cc1cc(-c2ccccc2C#N)nc2c(C(=O)NC(C3CC3)C(F)(F)F)ncn12 (stereo not drawn) [III-153]
> 20,> 60,4.5,,,,C#CC(C)(C)NC(=O)c1ncn2c(C)cc(-c3cccc(F)c3)nc12 [III-164]
> 20,> 60,0.1,,,,COc1cc(F)cc(-c2cc(C)n3cnc(C(=O)NC(C4CC4)C(F)(F)F)c3n2)c1 (stereo not drawn) [III-170]
< 10,> 60,2,,,,Cc1cc(-c2ccc(F)cc2)nc2c(C(=O)NC(C)(C)C)ncn12 [III-88]
> 20,> 60,0.3,,,,COc1cc(-c2cc(C)n3cnc(C(=O)NC(C4CC4)C4CC4)c3n2)ccc1F [III-174]
< 10,< 30,23.4,,,,Cc1cc(-n2ccnc2)nc2c(C(=O)NC(C)(C)C3CC3)ncn12 [III-67]
< 10,< 30,29.6,,,,Cc1cc(Oc2ccncc2)nc2c(C(=O)N[C@@H](C)C3CC3)ncn12 [III-123]
> 20,> 60,2.2,,,,C#Cc1cccc(C(NC(=O)c2ncn3c(C)cc(C)nc23)C(F)(F)F)c1 (stereo not drawn) [III-3]
10 to 20,> 60,16,,,,COCCOc1cccc(-c2cc(C)n3cnc(C(=O)N[C@@H](C)C4CC4)c3n2)c1 [III-101]
10 to 20,> 60,0.9,,,,Cc1cc(-c2ccccn2)nc2c(C(=O)N[C@@H](C)c3ccccc3F)ncn12 [III-29]
< 10,30 to 60,16.2,,,,Cc1cc(-c2cnccn2)nc2c(C(=O)NC(C)(C)C3CC3)ncn12 [III-56]
< 10,> 60,24.7,,,,COCc1cc(C)n2cnc(C(=O)NC(c3ccc(F)cc3)C(F)(F)F)c2n1 (stereo not drawn) [III-22]
10 to 20,> 60,5.2,,,,COc1cccc(-c2cc(C)n3cnc(C(=O)N[C@@H](C)C4CC4)c3n2)n1 [III-98]
> 20,> 60,0.9,,,,CNc1cc(C)n2cnc(C(=O)NC(c3ccc(F)cc3)C(F)(F)F)c2n1 (stereo not drawn) [III-17]
< 10,30 to 60,37.8,,,,Cc1cc(C)n2cnc(C(=O)NC(C3CC3)C(F)(F)F)c2n1 (stereo not drawn) [III-14]
> 20,> 60,2.9,,,,COc1cccc(-c2cc(C)n3cnc(C(=O)NC(C)C(F)(F)F)c3n2)c1 (stereo not drawn) [III-167]
< 10,< 30,14.5,,,,Cc1cc(-c2ccc(F)cc2)nc2c(C(=O)NC(C)C3CCCO3)ncn12 (stereo not drawn) [III-80]
> 20,> 60,0.1,,,,COc1cc(F)cc(-c2cc(C)n3cnc(C(=O)NC(C)(C)C)c3n2)c1 [III-126]
< 10,< 30,27.3,,,,Cc1cc(-n2cncn2)nc2c(C(=O)NC(C)(C)C3CC3)ncn12 [III-68]
> 20,> 60,1.5,,,,Cc1cc(-c2cccc(F)c2)nc2c(C(=O)NC(C3CC3)C3CC3)ncn12 [III-133]
> 20,> 60,0.5,,,,COc1cccc(-c2cc(C)n3cnc(C(=O)NC(C4CC4)C(F)(F)F)c3n2)n1 (stereo not drawn) [III-147]
10 to 20,> 60,23.3,,,,Cc1cc(OC2CCC2)nc2c(C(=O)NC(C3CC3)C3CC3)ncn12 [III-180]
> 20,> 60,2.2,,,,CCNc1cc(C)n2cnc(C(=O)NC(c3ccc(F)cc3)C(F)(F)F)c2n1 (stereo not drawn) [III-90]

# Reference: patent US9920061B2, “Imidazo[1,5-A]pyrimidinyl carboxamide compounds and their use in the treatment of medical disorders” (Lysosomal Therapeutics Inc., priority 2016, dated 2018)
